Results from patent publication US6428969B1, “Method for determining oncogenic activity of a substance” (Ludwig Institute for Cancer Research, priority 1997, dated 2002).

B1: IFNγ: cytokine interferonγ; human IFNγ used on human tumor cell lines (protein, UniProt P01579 24-161, looked up)
Interferon gamma: QDPYVKEAENLKKYFNAGHSDVADNGTLFLGILKNWKEESDRKIMQSQIVSFYFKLFKNFKDDQSIQKSVETIKEDMNVKFFNSNKKKRDDFEKLTNYSVTDLNVQRKAIHELIQVMAELSPAAKTGKRKRSQMLFRG

Key:
Stat1−/− mice = test: MCA-induced tumor formation at the injection site; format: in vivo, mouse
Procedure: (§1) Groups of IFNγR^−/− mice and STAT1^−/^− mice were generated as described in Examples 1 and 2 and compared to a control group of 129/Sv/Ev wild-type mice. All animals were greater than 6 weeks old (ranging in age from about 6 to about 12 weeks). Each of 20-25 animals per group, were injected subcutaneously with a single dose of MCA at 1.5, 6.25, 25, 100 or 400 μg and monitored for tumor development.

IFNγR−/− mice = test: MCA-induced tumor formation at the injection site; format: in vivo, mouse
Excerpt: (§2) Initially, tumor formation was examined in groups of 15-20 IFNγR^−/^− mice generated as described in Example 1 and wild type inbred 129/Sv/Ev mice as controls. All animals were greater than 6 weeks old (ranging in age from about 6 to about 12 weeks). The 129/Sv/Ev background was specifically chosen for these experiments since 129/Sv/Ev mice are relatively resistant to the tumorigenic actions of MCA and the pure background of the mice insured that in vivo growth of the resulting tumors could be studied using tumor transplantation approaches. The knockout and control mice were injected subcutaneously in a single dose with 25, 100, or 400 μg of the chemical carcinogen 3-methylcholanthrene (MCA) diluted in peanut oil and monitored for tumor development at the injection site for a period of 130 days. The results are shown in FIG. 1A, which represents the percentage of mice in each group with a tumor over 5 mm as a function of the number of days after injection.
as §1

wild type 129/Sv/Ev mice = test: MCA-induced tumor formation at the injection site; format: in vivo, mouse; conditions: for tumor development: Example 5
Excerpt: as §2, §1

[1] = system: IFNγ-responsive and IFNγ-unresponsive mice; test: Histologic comparison of MCA-induced tumors; format: in vivo; conditions: three mouse strains; data not shown
Procedure: Both types of IFNγ insensitive mice developed MCA-induced tumors more frequently than wild-type mice. Tumor formation was detected in IFNγR^−/− mice treated with as little as 6.25 μg MCA.

α chain knockout mice = conditions: mouse, in vivo; cited from earlier work
[2] = system: perforin-deficient (PKO) mice; conditions: subcutaneous injection; cited from earlier work
p53−/+ mice = conditions: cited from earlier work
SK-LC-4 = test: MHC class I surface expression by flow cytometry; format: cell-based, human; conditions: IFNγ 1000 IRU/ml or IFNαA/D 1000 U/ml, 72 hr, mean channel shift vs untreated cells
Procedure: (§3) To address this question IFNγ responsiveness was examined in a variety of tumor cell lines obtained from human tumor cell banks. Established cell lines were cultured in the presence of either buffer, human IFNγ (1000 IRU/ml), or human IFNαA/D (1000 U/ml) for 72 hr followed by quantitation of MHC class I surface expression by flow cytometry with the antibody W6/32 as previously described (Farrar et al., supra). W6/32 is a murine monoclonal antibody specific for a framework region of human MHC Class I and was kindly provided by Dr. Thalachallour Mohanakumar (Washington University, St. Louis, Mo.). IFNγ-dependent STAT1 activation was assessed by treating cells with either PBS or human IFNγ at 10,000 IRU/ml for 5 minutes at 37° C. followed by subjecting 5 μg of nuclear extract to EMSA using a ^32P-labeled GRR probe as described by Greenlund et al., EMBO J. 13:1591, 1994, which is incorporated herein by reference.
(§4) The experiment was repeated with 17 human adenocarcinoma cell lines and the data are shown in Table I below, with the induction of MHC class I expression represented as the mean channel shift between IFNγ-treated cells and untreated cells. […] The CALU-5 cell line was also insensitive to IFNα. None of the cell lines examined show IFNα-specific unresponsiveness.

SK-LU-1 = test: MHC class I surface expression by flow cytometry; format: cell-based, human; conditions: IFNγ 1000 IRU/ml or IFNαA/D 1000 U/ml, 72 hr, mean channel shift vs untreated cells
Procedure: as §3, §4

A457 = test: MHC class I surface expression by flow cytometry; format: cell-based, human; conditions: IFNγ 1000 IRU/ml or IFNαA/D 1000 U/ml, 72 hr, mean channel shift vs untreated cells
Procedure: as §3, §4

SK-LC-16 = test: MHC class I surface expression by flow cytometry; format: cell-based, human; conditions: IFNγ 1000 IRU/ml or IFNαA/D 1000 U/ml, 72 hr, mean channel shift vs untreated cells
Procedure: as §3, §4

SK-LC-9 = test: MHC class I surface expression by flow cytometry; format: cell-based, human; conditions: IFNγ 1000 IRU/ml or IFNαA/D 1000 U/ml, 72 hr, mean channel shift vs untreated cells
Procedure: as §3, §4

SK-LC-20 = test: MHC class I surface expression by flow cytometry; format: cell-based, human; conditions: IFNγ 1000 IRU/ml or IFNαA/D 1000 U/ml, 72 hr, mean channel shift vs untreated cells
Procedure: as §3, §4

SK-LC-19 = test: MHC class I surface expression by flow cytometry; format: cell-based, human; conditions: for MHC Class I Enhancement (MCS): SK-LC-19, IFNγ 1000 IRU/ml or IFNαA/D 1000 U/ml, 72 hr, mean channel shift vs untreated cells
Procedure: as §3, §4

SK-LC-10 = test: MHC class I surface expression by flow cytometry; format: cell-based, human; conditions: IFNγ 1000 IRU/ml or IFNαA/D 1000 U/ml, 72 hr, mean channel shift vs untreated cells
Procedure: as §3, §4

CALU-3 = test: MHC class I surface expression by flow cytometry; format: cell-based, human; conditions: IFNγ 1000 IRU/ml or IFNαA/D 1000 U/ml, 72 hr, mean channel shift vs untreated cells
Procedure: as §3, §4

SK-LC-15 = test: MHC class I surface expression by flow cytometry; format: cell-based, human; conditions: IFNγ 1000 IRU/ml or IFNαA/D 1000 U/ml, 72 hr, mean channel shift vs untreated cells
Procedure: as §3, §4

SK-LC-2 = test: MHC class I surface expression by flow cytometry; format: cell-based, human; conditions: for MHC Class I Enhancement (MCS): IFNγ 1000 IRU/ml or IFNαA/D 1000 U/ml, 72 hr, mean channel shift vs untreated cells
Procedure: as §3, §4

SK-LC-12 = test: MHC class I surface expression by flow cytometry; format: cell-based, human; conditions: IFNγ 1000 IRU/ml or IFNαA/D 1000 U/ml, 72 hr, mean channel shift vs untreated cells
Procedure: as §3, §4

SK-LC-7 = test: MHC class I surface expression by flow cytometry; format: cell-based, human; conditions: for MHC Class I Enhancement (MCS): IFNγ 1000 IRU/ml or IFNαA/D 1000 U/ml, 72 hr, mean channel shift vs untreated cells
Procedure: as §3, §4

CALU-5 = test: MHC class I surface expression by flow cytometry; format: cell-based, human; conditions: for MHC Class I Enhancement (MCS): IFNγ 1000 IRU/ml or IFNαA/D 1000 U/ml, 72 hr, mean channel shift vs untreated cells
Procedure: as §3, §4

A549 = test: MHC class I surface expression by flow cytometry; format: cell-based, human; conditions: IFNγ 1000 IRU/ml or IFNαA/D 1000 U/ml, 72 hr, mean channel shift vs untreated cells
Procedure: as §3, §4

SK-LC-11 = test: MHC class I surface expression by flow cytometry; format: cell-based, human; conditions: IFNγ 1000 IRU/ml or IFNαA/D 1000 U/ml, 72 hr, mean channel shift vs untreated cells
Procedure: as §3, §4

SK-LC-1 = test: MHC class I surface expression by flow cytometry; format: cell-based, human; conditions: IFNγ 1000 IRU/ml or IFNαA/D 1000 U/ml, 72 hr, mean channel shift vs untreated cells
Procedure: as §3, §4

RADgR.28.mgR cells = test: Antiproliferative or anti-metabolic effects of IFNγ in culture; format: cell-based, mouse; conditions: IFNγ alone or in combination with other cytokines, in vitro; data not shown
Excerpt: Having identified the tumor cell as the major target of IFNγ's actions, experiments were designed to define the mechanism underlying the rejection process. IFNγ can induce an antiproliferative state in certain cell types.

[3] = system: 33 melanoma and 17 lung tumor cell lines classified as non-adenocarcinoma; test: Preliminary study of IFNγ sensitivity of tumor cell lines; format: cell-based, human; conditions: of each group (33 melanoma, 17 lung non-adenocarcinoma lines), data not shown
Procedure: as §3

[4] = 400 μg MCA, single s.c. dose, at 130 days

Molecule | tumor induction (p53−/+ mice) | MHC Class I Enhancement (MCS) (SK-LC-4) | MHC Class I Enhancement (MCS) (SK-LU-1) | MHC Class I Enhancement (MCS) (A457) | MHC Class I Enhancement (MCS) (SK-LC-16) | MHC Class I Enhancement (MCS) (SK-LC-9) | MHC Class I Enhancement (MCS) (SK-LC-20) | MHC Class I Enhancement (MCS) (SK-LC-19) | MHC Class I Enhancement (MCS) (SK-LC-10) | MHC Class I Enhancement (MCS) (CALU-3) | MHC Class I Enhancement (MCS) (SK-LC-15) | MHC Class I Enhancement (MCS) (SK-LC-2) | MHC Class I Enhancement (MCS) (SK-LC-12) | MHC Class I Enhancement (MCS) (SK-LC-7) | MHC Class I Enhancement (MCS) (CALU-5) | MHC Class I Enhancement (MCS) (A549) | MHC Class I Enhancement (MCS) (SK-LC-11) | MHC Class I Enhancement (MCS) (SK-LC-1) | other results
Cc1ccc2cc3c(ccc4ccccc43)c3c2c1CC3 [MCA, 3-methylcholanthrene] | – | – | – | – | – | – | – | – | – | – | – | – | – | – | – | – | – | – | frequency of tumors relative to IFNγR−/− mice (Stat1−/− mice; at every dose examined): approximately two times; lowest MCA dose at which tumors could be detected (Stat1−/− mice; single s.c. dose, within 130 days): 1.6 μg MCA/mouse; mice forming tumors at the lower MCA dose (IFNγR−/− mice; 25 μg MCA s.c., Example 4): high percentage; percentage of mice that developed tumors (over 5 mm) (IFNγR−/− mice; [4]): 50%; time at which tumors were detected (IFNγR−/− mice; all dose groups (25, 100, 400 μg MCA s.c.)): 90 days; tumor development compared with wild-type mice (IFNγR−/− mice; all doses examined (25, 100, 400 μg)): more frequently and at earlier times; lowest MCA dose at which tumor formation was detected (IFNγR−/− mice; single s.c. dose, within 130 days, Example 5): 6.25 µg; tumor development (wild type 129/Sv/Ev mice; 25 μg MCA): not; tumor development (wild type 129/Sv/Ev mice; 400 μg MCA): developed tumors; percentage of mice in which tumors were detected (over 5 mm) (wild type 129/Sv/Ev mice; [4]): 20%; MCA dose at which tumors formed (wild type 129/Sv/Ev mice; single s.c. dose, 130 days, Example 4): ≥ 100 µg; histology of induced tumors [1]: histologically indistinguishable fibrosarcomas; tumors in α chain knockout mice compared with wild-type controls (α chain knockout mice): more tumors; sarcomas at the injection site compared with normal MCA-treated mice [2]: higher frequency and with accelerated onset of tumor
C1CC2OC2CC1C1CO1 (stereo not drawn) [VCD, 4-vinyl-1-cyclohexene diepoxide] | tumors were induced | – | – | – | – | – | – | – | – | – | – | – | – | – | – | – | – | – | –
COc1ccc(C)cc1N [p-cresidine] | tumors were induced | – | – | – | – | – | – | – | – | – | – | – | – | – | – | – | – | – | –
IFNα | – | 36.7 | 16.7 | 27.1 | 10.9 | 53.4 | 25.9 | 25.1 | 22.6 | 17.0 | 79.6 | 16.7 | 12.7 | 37.2 | 0.0 | 21.8 | 13.8 | 18.7 | sensitivity to IFNα (CALU-5): insensitive
B1 | – | 59.5 | 47.1 | 27.7 | 27.0 | 49.3 | 25.6 | 0.0 | 31.7 | 30.4 | 91.3 | 0.0 | 30.4 | 0.0 | 0.0 | 36.9 | 25.3 | 16.9 | antiproliferative or anti-metabolic effects (RADgR.28.mgR cells): no antiproliferative or anti-metabolic effects; share of cell lines showing a quantitative reduction in IFNγ sensitivity [3]: approximately 33%; responsiveness to IFNγ (initiation of IFNγ-signaling or IFNγ dependent biologic response) (SK-LC-19; SL-LC-19 as printed): totally unresponsive; responsiveness to IFNγ (initiation of IFNγ-signaling or IFNγ dependent biologic response) (SK-LC-2): totally unresponsive; responsiveness to IFNγ (initiation of IFNγ-signaling or IFNγ dependent biologic response) (SK-LC-7): totally unresponsive; responsiveness to IFNγ (initiation of IFNγ-signaling or IFNγ dependent biologic response) (CALU-5): totally unresponsive
